Measurements: patent US20260242745A1, “TISSUE ENGINEERED TUBE USING STEM CELL, AND METHOD FOR PRODUCING SAME” (TOHOKU UNIVERSITY, priority 2023, published 2026)
Bridges are numbered along the chain shown (N, C = ends). Where no end group is shown, it is not given here.

How the values were obtained:
[1] = test system: artificial blood vessels produced from 201B7 cells (iPS cells derived from healthy subjects); test: Contraction of artificial blood vessels produced from 201B7 iPS cells in response to physiologically active substances; format: cell-based, human; settings: for contraction rate after perfusion culture: 201B7 co-culture, immediately after start of perfusion culture vs third day of perfusion, FIG. 8B; for contraction reaction: artificial blood vessel of smooth muscle cells alone (201B7 vSMC) compared with 201B7 co-culture with endothelial cells, FIG. 8A; for concentration dependence of contraction rate: iPS cells derived from healthy subjects, U46619 0.05 nM to 0.5 nM, endothelin-1 100 nM to 1000 nM, n=5, FIG. 8C; for contraction reaction (same as with U46619): artificial blood vessels produced from 201B7 cells, physiological vasoconstrictors
Experimental: Next, it was analyzed whether the produced tissue engineered tube reproduces physiological reactions such as contraction and expansion with respect to a physiologically active substance. First, regarding artificial blood vessels produced from 201B7 cells, an artificial blood vessel of only smooth muscle cells (201B7 vSMC) and an artificial blood vessel obtained by seeding and co-culturing blood vessel endothelial cells induced to differentiate from 201B7 in an artificial blood vessel lumen (201B7 co-culture) were produced, and the contraction reaction due to U46619 and KCl was analyzed (FIG. 8A). U46619 is a stable synthetic analog of prostaglandin PGH2 and has an action of inducing blood vessel contraction as a thromboxane A2 receptor agonist. KCl is known to induce blood vessel contraction by membrane potential change. Since an individual difference may occur under a normal contraction amount, U46619 relative is a normalized value obtained by dividing the contraction amount when U46619 is applied by the contraction amount when KCl is applied, which indicates the maximum contraction force. […] NO is a vasodilator and is known to be released from blood vessel endothelial cells. Therefore, it is recognized that the produced artificial blood vessel reproduces the physiological mechanism. […] In the following experiments, artificial blood vessels co-cultured with endothelial cells were used unless otherwise specified.
In order to maintain a more physiological environment, perfusion culture was performed to examine whether the contraction rate was improved (FIG. 8B). Immediately after the start of perfusion culture, U46649 or KCl was applied to an artificial blood vessel produced from 201B7 cells (201B7 co-culture) on the third day of perfusion to analyze the contraction rate. […] It is known that blood vessel tissues change in phenotype, orientation, and the like and mature due to shear stress and blood pressure caused by perfusion culture.
It was analyzed whether the contraction of the artificial blood vessel with respect to U46619 and endothelin-1 depended on the concentration. Artificial blood vessels were produced using iPS cells derived from healthy subjects, and the contraction rates were measured while changing the concentrations of U46619 (0.05 nM to 0.5 nM) and endothelin-1 (100 nM to 1000 nM) (n=5). […] Therefore, it is recognized that the produced artificial blood vessels has have physiological properties.

[2] = test system: artificial blood vessels produced from iPS cells derived from Werner syndrome patients (WS2-C5 co-culture); test: Contraction of artificial blood vessels produced from Werner syndrome patient iPS cells compared with those from healthy subjects; format: cell-based, human; settings: for contraction against stimulation, WS2-C5 co-culture vs 201B7 co-culture: n=4, FIG. 9A; for relative contraction rate, Werner derived vs WT derived iPSC blood vessels: 200 nM U46619 or 100 nM angiotensin II, contraction amount with 100 mM KCl as 100%, FIG. 9B
Experimental: Next, reactions to U46619 and KCl were analyzed using artificial blood vessels produced from Werner syndrome patients iPS (FIG. 9A). iPS cells derived from healthy subjects and Werner syndrome patients were induced to differentiate into smooth muscle cells and blood vessel endothelial cells to produce artificial blood vessels as described above, and contraction with respect to U46619 and KCl was analyzed.
In addition to U46619, the relative contraction rate was also determined for angiotensin II (FIG. 9B). The artificial blood vessel was contracted by 200 nM U46619 or 100 nM angiotensin II, and the relative contraction rate was calculated with the contraction amount when 100 mM KCl was applied as 100%. […] Hereinafter, the artificial blood vessels produced using iPS cells derived from healthy subjects may be referred to as WT derived iPSC blood vessels, and the artificial blood vessels produced using iPS cells derived from Werner syndrome patients may be referred to as Werner derived iPSC blood vessels.
Artificial blood vessels were produced from iPS cells derived from healthy subjects and Werner syndrome patients and subjected to perfusion culture, and the contraction by U46619 was analyzed (FIG. 9C). […] This is considered to be caused by a decrease in NO production ability of blood vessel endothelial cells derived from iPS cells of Werner syndrome patients.

[Cl-].[K+] [KCl]
contraction rate after perfusion culture [1]: an improvement in contraction rate due to perfusion culture was observed | contraction reaction [1]: high contraction was observed | contraction against stimulation, WS2-C5 co-culture vs 201B7 co-culture [2]: tended to contract more strongly

CCCCC[C@H](O)/C=C/[C@@H]1[C@@H](C/C=C\CCCC(=O)O)[C@H]2CO[C@@H]1C2 [U46619]
contraction rate after perfusion culture [1]: an improvement in contraction rate due to perfusion culture was observed | contraction reaction [1]: high contraction was observed | concentration dependence of contraction rate [1]: contracted in a concentration-dependent manner | relative contraction rate, Werner derived vs WT derived iPSC blood vessels [2]: exhibited stronger contraction force | contraction against stimulation, WS2-C5 co-culture vs 201B7 co-culture [2]: tended to contract more strongly | contraction after perfusion culture, Werner derived vs WT derived iPSC blood vessels ([2]; perfusion culture, FIG. 9C): an increase in contraction force was observed

angiotensin II (DRVYIHPF; Angiotensin-2; UniProt P01019 25-32, looked up) [physiological vasoconstrictor]
contraction reaction (same as with U46619) [1]: the same contraction reaction occurs | relative contraction rate, Werner derived vs WT derived iPSC blood vessels [2]: exhibited stronger contraction force

endothelin-1 (CSCSSLMDKECVYFCHLDIIW; disulfide 1-15, 3-11; ends not checked; UniProt P05305 53-73, looked up) [physiological vasoconstrictor]
contraction reaction (same as with U46619) [1]: the same contraction reaction occurs | concentration dependence of contraction rate [1]: contracted in a concentration-dependent manner
